Experimental findings from BindingDB's records for doi:10.1016/j.bmcl.2003.09.075 (Eli Lilly, 2003) are described below.

A word on the Ki: it is the dissociation constant of the complex between target and ligand, obtained from inhibition or displacement. A high value points to lower affinity. Usually IC50 stands for the concentration at which inhibition is half-maximal. Lower therefore signals inhibition by little substance.

In experiment [1] the target is NS3 protease (Hepatitis C virus). Kind of experiment: Binding affinity towards Protease using PNA assay.
Experiment [2] shares this target. Kind of experiment: Inhibitory activity against Protease using replicon assay […] at 25 uM concentration. (In antiviral work, replicon cells carry a viral genome segment that copies itself.)
The target is the same in experiment [3]. Kind of experiment: Inhibitory activity against HCV protease using replicon assay […].
The target is the same in experiment [4]. The experiment is described as follows: Inhibitory activity against HCV protease in enzyme inhibition assay.

For the molecule `CCC[C@H](NC(=O)[C@@H]1[C@H]2CCC[C@H]2CN1C(=O)[C@@H](NC(=O)[C@@H](NC(=O)c1cnccn1)C(C)C)C(C)(C)C)C(=O)C(=O)NC(C)CC` (stereo partly drawn) [(1S,5S,6R)-2-((S)-3,3-Dimethyl-2-{(S)-3-methyl-2-[(pyrazine-2-carbonyl)-amino]-butyrylamino}-butyryl)-octahydro-cyclopenta[c]pyrrole-1-carboxylic acid [1-((S)-sec-butylaminooxalyl)-butyl]-amide], in experiment [1], the Ki was 0.21 µM. Further, in experiment [2], the IC50 came to 3.48 µM.
Molecule `CCC(C)NC(=O)C(=O)[C@H](CC(F)F)NC(=O)[C@@H]1[C@H]2CCC[C@H]2CN1C(=O)[C@@H](NC(=O)[C@@H](NC(=O)c1cnccn1)C(C)C)C(C)(C)C` (stereo partly drawn) [(1S,5S,6R)-2-((S)-3,3-Dimethyl-2-{(S)-3-methyl-2-[(pyrazine-2-carbonyl)-amino]-butyrylamino}-butyryl)-octahydro-cyclopenta[c]pyrrole-1-carboxylic acid [1-((S)-sec-butylaminooxalyl)-3,3-difluoro-propyl]-amide] had a Ki in experiment [1] of 0.48 µM. In experiment [3], this molecule had an IC50 of 2.61 µM.
For the molecule `CC(C)[C@H](NC(=O)c1cnccn1)C(=O)N[C@H](C(=O)N1C[C@@H]2CCC[C@@H]2[C@H]1C(=O)N[C@@H](CC(F)F)C(=O)C(=O)N[C@@H](C)c1ccccc1)C(C)C` [(1S,5S,6R)-2-((S)-3-Methyl-2-{(S)-3-methyl-2-[(pyrazine-2-carbonyl)-amino]-butyrylamino}-butyryl)-octahydro-cyclopenta[c]pyrrole-1-carboxylic acid [3,3-difluoro-1-((S)-(S)-1-phenyl-ethylaminooxalyl)-propyl]-amide], in experiment [4], the affinity corresponds to a Ki of 0.4 µM. Also, in experiment [3], the IC50 was 0.91 µM.
In turn, `CC(C)[C@H](NC(=O)c1cnccn1)C(=O)N[C@H](C(=O)N1C[C@@H]2CCC[C@@H]2[C@H]1C(=O)NC(CC(F)F)C(=O)C(=O)NC1CC1)C(C)C` (stereo partly drawn) [(1S,5S,6R)-2-((S)-3-Methyl-2-{(S)-3-methyl-2-[(pyrazine-2-carbonyl)-amino]-butyrylamino}-butyryl)-octahydro-cyclopenta[c]pyrrole-1-carboxylic acid (1-cyclopropylaminooxalyl-3,3-difluoro-propyl)-amide] had a Ki in experiment [1] of 0.22 µM. Besides, in experiment [2], the midpoint of inhibition, the IC50, lay at 3.78 µM.
The molecule `CC(C)[C@H](NC(=O)c1cnccn1)C(=O)N[C@H](C(=O)N1C[C@@H]2CCC[C@@H]2[C@H]1C(=O)N[C@@H](CC(F)F)C(=O)C(=O)N[C@@H](C)c1ccccc1)C(C)(C)C` [(1S,5S,6R)-2-((S)-3,3-Dimethyl-2-{(S)-3-methyl-2-[(pyrazine-2-carbonyl)-amino]-butyrylamino}-butyryl)-octahydro-cyclopenta[c]pyrrole-1-carboxylic acid [3,3-difluoro-1-((S)-(S)-1-phenyl-ethylaminooxalyl)-propyl]-amide] registered a Ki in experiment [1] of 0.12 µM. In experiment [3], this molecule registered an IC50 of 0.63 µM.
